Experimental data reported in paper PMC8388771, “Cationic Peptidomimetic Amphiphiles Having a N-Aryl- or N-Naphthyl-1,2,3-Triazole Core Structure Targeting Clostridioides (Clostridium) difficile: Synthesis, Antibacterial Evaluation, and an In Vivo C. difficile Infection Model” (Antibiotics, 2021).
Values after ≈ are worked out from the molar mass of the structure shown. Read-outs that look alike come from different tables or passages of the source.

What was measured:
[1] = Cytotoxicity (CC50) assay by CO-ADD; assay type: cell-based, human; conditions: human, HEK293 cells (ATCC CRL-1573); Table 1; cytotoxicity on HEK293 cells, tested at ≤32 µg/mL
Text: (§1) The N-arytriazole and N-naphthyltriazole peptidomimetics were subjected to antimicrobial screening. […] Vancomycin, colistin, fluconazole, and tamoxifen were used as positive controls (see Table 1 for details).
(§2) Secondary screening (MRSA and Gram-negative bacteria) and cytotoxicity assay–performed by the Community for Open Antimicrobial Drug Discovery (CO-ADD). Samples were provided to CO-ADD [29] for antimicrobial screening by whole cell growth inhibition assays.
Cytotoxicity Assay. These were performed as described previously.

C. difficile ATCC 700057 = assay: Primary MIC assay, C. difficile ATCC 700057; assay type: cell-based, Clostridioides difficile; conditions: Clostridioides difficile
Method: as §1
(§3) Primary screening (Gram-positive bacteria). Primary MIC assays were performed as described by the Clinical and Laboratory Standards Institute for aerobic and anaerobic bacteria. MIC values for vancomycin were within acceptable QC ranges.

E. coli ATCC 25922 [2] = assay: Primary MIC assay, E. coli ATCC 25922; assay type: cell-based; conditions: for MIC: Escherichia coli
A. baumannii ATCC 19606 = assay: CO-ADD MIC assay, A. baumannii ATCC 19606; assay type: cell-based; conditions: for MIC: Acinetobacter baumannii, ATCC19606, Table S1
Text: as §1, §2
(§4) Bacterial Inhibition–MIC Assay. These were performed as described previously.

E. faecalis ATCC 29212 = assay: Primary MIC assay, E. faecalis ATCC 29212; assay type: cell-based, Enterococcus faecalis; conditions: Enterococcus faecalis
Method: as §1, §3

S. aureus NCTC 10442 = assay: Primary MIC assay, S. aureus NCTC 10442 (MRSA); assay type: cell-based; conditions: Staphylococcus aureus
Method: as §1, §3

E. coli ATCC 25922 [3] = assay: CO-ADD MIC assay, E. coli ATCC 25922; assay type: cell-based; conditions: for MIC: Escherichia coli, ATCC25922, Table S1
Text: as §1, §2, §4

human erythrocytes = assay: Hemolysis assay, HC50 determination; assay type: cell-based
Method: Hemolysis assay (human erythrocytes)–HC50 determination. These were performed as described previously.

S. pneumoniae ATCC 49619 = assay: Primary MIC assay, S. pneumoniae ATCC 49619; assay type: cell-based, Streptococcus pneumoniae; conditions: Streptococcus pneumoniae
Method: as §1, §3

[4] = system: K. pneumoniae ATCC 700603; assay: CO-ADD MIC assay, K. pneumoniae ATCC 700603; assay type: cell-based; conditions: for MIC: Klebsiella pneumoniae, ATCC700603, Table S1, multi-drug resistant
Text: as §1, §2, §4

C. albicans ATCC 90028 = assay: CO-ADD MIC assay, C. albicans ATCC 90028; assay type: cell-based; conditions: Candida albicans, ATCC90028, Table S1
Text: as §1, §2

P. aeruginosa ATCC 27853 = assay: CO-ADD MIC assay, P. aeruginosa ATCC 27853; assay type: cell-based; conditions: for MIC: Pseudomonas aeruginosa, ATCC27853, Table S1
Text: as §1, §2, §4

C. difficile 132 (RT027) = assay: Primary MIC assay, C. difficile 132 (RT027); assay type: cell-based, Clostridioides difficile; conditions: Clostridioides difficile, read-out: MIC C. difficile 132 (RT027)
Method: as §1, §3

S. aureus ATCC 43300 = assay: CO-ADD MIC assay, S. aureus ATCC 43300 (MRSA); assay type: cell-based; conditions: Staphylococcus aureus, read-out: MIC S. aureus ATCC 43300
Text: as §1, §2, §4

S. aureus ATCC 29213 = assay: Primary MIC assay, S. aureus ATCC 29213; assay type: cell-based; conditions: Staphylococcus aureus
Method: as §1, §3

[5] = system: Cryptococcus neoformans var. grubii ATCC 208821; assay: CO-ADD MIC assay, C. neoformans var. grubii ATCC 208821; assay type: cell-based; conditions: Cryptococcus neoformans, ATCC208821, Table S1
Text: as §1, §2

[6] = ATCC700057, Table 1, read-out: MIC C. difficile ATCC 700057
[7] = ATCC25922, Table 1, read-out: MIC E. coli ATCC 25922
[8] = ATCC29212, Table 1, read-out: MIC E. faecalis ATCC 29212
[9] = Table 1, MRSA, read-out: MIC S. aureus NCTC 10442
[10] = Table 1, lysis of human erythrocytes
[11] = Table S1, footnote says lysis of sheep erythrocytes
[12] = ATCC49619, Table 1, read-out: MIC S. pneumoniae ATCC 49619
[13] = ATCC29213, Table 1, read-out: MIC S. aureus ATCC 29213

MIC (C. difficile ATCC 700057; [6]) | MIC (E. coli ATCC 25922 [2]; [7]) | MIC (A. baumannii ATCC 19606) | MIC (E. faecalis ATCC 29212; [8]) | MIC (S. aureus NCTC 10442; [9]) | MIC (E. coli ATCC 25922 [3]) | MIC (S. pneumoniae ATCC 49619; [12]) | MIC [4] | MIC (C. albicans ATCC 90028) | MIC (P. aeruginosa ATCC 27853) | MIC (C. difficile 132 (RT027); Table 1) | MIC (S. aureus ATCC 43300; Table S1, MRSA, CO-ADD) | MIC (S. aureus ATCC 29213; [13]) | Molecule | CC50 [1] | HC50 (human erythrocytes; [10]) | HC50 (human erythrocytes; [11]) | further results
128 µg/mL | 128 µg/mL | > 32 µg/mL | 64 µg/mL | 16 µg/mL | 32 µg/mL | 4 µg/mL | > 32 µg/mL | > 32 µg/mL | 32 µg/mL | 128 µg/mL | 16 µg/mL | 16 µg/mL | CC(C)CCc1cnnn1-c1c(OCC(=O)N[C@H](CCCCN)C(=O)N[C@H](CCCNC(=N)N)Cn2cc(Cc3ccccc3)nn2)ccc2ccccc12.Cl.Cl [Compound 45] | > 32 µg/mL | >32 µg/mL | > 32 µg/mL | –
128 µg/mL (≈ 181 µM) | > 128 µg/mL | > 32 µg/mL | > 128 µg/mL | 128 µg/mL (≈ 181 µM) | > 32 µg/mL | 128 µg/mL (≈ 181 µM) | > 32 µg/mL | > 32 µg/mL | > 32 µg/mL | > 128 µg/mL | 32 µg/mL (≈ 45.3 µM) | 128 µg/mL (≈ 181 µM) | CC(C)CCc1cnnn1-c1ccccc1OCC(=O)N[C@H](CCCCN)C(=O)N[C@H](CCCNC(=N)N)Cn1cc(CC2CCCCC2)nn1 [Compound 38] | 32 µg/mL (≈ 45.3 µM) | 32 µg/mL | 32 µg/mL | MIC [5]: 16 µg/mL (≈ 22.6 µM)
128 µg/mL | 128 µg/mL | > 32 µg/mL | 64 µg/mL | 32 µg/mL | > 32 µg/mL | 16 µg/mL | > 32 µg/mL | 32 µg/mL | > 32 µg/mL | 128 µg/mL | 16 µg/mL | 32 µg/mL | Cl.Cl.N=C(N)NCCC[C@H](Cn1cc(Cc2ccccc2)nn1)NC(=O)[C@@H](CCCCN)NC(=O)COc1ccccc1-c1cn(Cc2ccccc2)nn1 [Compound 46] | > 32 µg/mL | >32 µg/mL | > 32 µg/mL | –
– | – | – | – | – | – | – | – | 0.125 µg/mL (≈ 0.408 µM) | – | – | – | – | OC(Cn1cncn1)(Cn1cncn1)c1ccc(F)cc1F [flucona-zole, fluconazole, reference compound] | – | – | – | MIC [5]: 0.25 µg/mL (≈ 0.816 µM)

More lines, now with the values behind:

Molecule | MIC (C. difficile ATCC 700057; [6]) | MIC (E. coli ATCC 25922 [2]; [7]) | MIC (A. baumannii ATCC 19606) | MIC (E. faecalis ATCC 29212; [8]) | MIC (S. aureus NCTC 10442; [9]) | MIC (E. coli ATCC 25922 [3]) | MIC (S. pneumoniae ATCC 49619; [12]) | MIC [4] | MIC (C. albicans ATCC 90028) | MIC (P. aeruginosa ATCC 27853) | MIC (C. difficile 132 (RT027); Table 1) | MIC (S. aureus ATCC 43300; Table S1, MRSA, CO-ADD) | MIC (S. aureus ATCC 29213; [13]) | CC50 [1] | HC50 (human erythrocytes; [10]) | HC50 (human erythrocytes; [11]) | further results
CC/C(=C(\c1ccccc1)c1ccc(OCCN(C)C)cc1)c1ccccc1 [tamoxifen, reference compound] | – | – | – | – | – | – | – | – | – | – | – | – | – | 13.1 µg/mL (≈ 35.3 µM) | – | – | –
colistin [reference compound] | – | – | – | – | – | – | – | – | – | – | – | – | – | – | – | – | MIC E. coli ATCC 25922 (E. coli ATCC 25922 [2]; Table 1): 0.125 µg/mL; MIC A. baumannii ATCC 19606 (A. baumannii ATCC 19606; Table S1): 0.25 µg/mL; MIC E. coli ATCC 25922 (E. coli ATCC 25922 [3]; Table S1): 0.125 µg/mL; MIC K. pneumoniae ATCC 700603 ([4]; Table S1, multi-drug resistant): 0.25 µg/mL; MIC P. aeruginosa ATCC 27853 (P. aeruginosa ATCC 27853; Table S1): 0.25 µg/mL
CN[C@H](CC(C)C)C(=O)N[C@H]1C(=O)N[C@@H](CC(N)=O)C(=O)N[C@H]2C(=O)N[C@H]3C(=O)N[C@H](C(=O)N[C@H](C(=O)O)c4cc(O)cc(O)c4-c4cc3ccc4O)[C@H](O)c3ccc(c(Cl)c3)Oc3cc2cc(c3O[C@@H]2O[C@H](CO)[C@@H](O)[C@H](O)[C@H]2O[C@H]2C[C@](C)(N)[C@H](O)[C@H](C)O2)Oc2ccc(cc2Cl)[C@H]1O [vanc, vancomycin, reference compound] | – | – | – | – | – | – | – | – | – | – | – | – | – | – | – | – | MIC (C. difficile ATCC 700057; ATCC700057, read-out: MIC C. difficile ATCC 700057): 0.5 µg/mL (≈ 0.345 µM); MIC (E. coli ATCC 25922 [2]; ATCC25922, read-out: MIC E. coli ATCC 25922): > 16 µg/mL; MIC (E. faecalis ATCC 29212; ATCC29212, read-out: MIC E. faecalis ATCC 29212): 4 µg/mL (≈ 2.76 µM); MIC (S. aureus NCTC 10442; MRSA / NCTC 10442 / NCTC 104422, read-out: MIC S. aureus NCTC 104422): 1 µg/mL (≈ 0.69 µM); MIC (S. aureus NCTC 10442; read-out: MIC S. aureus NCTC 10442): 1 µg/mL (≈ 0.69 µM); MIC (S. pneumoniae ATCC 49619; ATCC49619, read-out: MIC S. pneumoniae ATCC 49619): 1 µg/mL (≈ 0.69 µM); MIC (C. difficile 132 (RT027)): 0.5 µg/mL (≈ 0.345 µM); MIC (S. aureus ATCC 43300): 1 µg/mL (≈ 0.69 µM); MIC (S. aureus ATCC 29213; ATCC29213, read-out: MIC S. aureus ATCC 29213): 1 µg/mL (≈ 0.69 µM)
